The values that follow come from ChEMBL document CHEMBL3991601, “The target landscape of clinical kinase drugs” (Science, 2017).

The target in experiment [1] is T1, Activin receptor type-1 (Homo sapiens, UniProt Q04771).
T1 sequence (Q04771 whole entry): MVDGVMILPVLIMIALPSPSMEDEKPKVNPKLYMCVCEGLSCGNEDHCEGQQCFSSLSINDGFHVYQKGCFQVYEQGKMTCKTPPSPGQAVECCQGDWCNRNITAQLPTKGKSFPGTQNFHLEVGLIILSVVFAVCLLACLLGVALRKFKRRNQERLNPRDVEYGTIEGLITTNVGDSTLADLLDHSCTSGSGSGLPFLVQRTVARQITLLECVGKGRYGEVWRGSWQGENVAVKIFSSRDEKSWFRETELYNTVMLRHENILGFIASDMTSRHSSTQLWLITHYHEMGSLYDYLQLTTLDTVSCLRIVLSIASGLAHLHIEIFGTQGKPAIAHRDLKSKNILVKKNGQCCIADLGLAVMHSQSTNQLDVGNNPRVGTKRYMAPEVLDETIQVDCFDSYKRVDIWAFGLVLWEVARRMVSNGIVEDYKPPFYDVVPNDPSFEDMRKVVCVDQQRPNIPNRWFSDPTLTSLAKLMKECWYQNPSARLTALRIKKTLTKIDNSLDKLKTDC

Experiment [2] addresses T2, Cyclin-G-associated kinase (Homo sapiens, UniProt O14976).
T2 sequence (O14976 whole entry): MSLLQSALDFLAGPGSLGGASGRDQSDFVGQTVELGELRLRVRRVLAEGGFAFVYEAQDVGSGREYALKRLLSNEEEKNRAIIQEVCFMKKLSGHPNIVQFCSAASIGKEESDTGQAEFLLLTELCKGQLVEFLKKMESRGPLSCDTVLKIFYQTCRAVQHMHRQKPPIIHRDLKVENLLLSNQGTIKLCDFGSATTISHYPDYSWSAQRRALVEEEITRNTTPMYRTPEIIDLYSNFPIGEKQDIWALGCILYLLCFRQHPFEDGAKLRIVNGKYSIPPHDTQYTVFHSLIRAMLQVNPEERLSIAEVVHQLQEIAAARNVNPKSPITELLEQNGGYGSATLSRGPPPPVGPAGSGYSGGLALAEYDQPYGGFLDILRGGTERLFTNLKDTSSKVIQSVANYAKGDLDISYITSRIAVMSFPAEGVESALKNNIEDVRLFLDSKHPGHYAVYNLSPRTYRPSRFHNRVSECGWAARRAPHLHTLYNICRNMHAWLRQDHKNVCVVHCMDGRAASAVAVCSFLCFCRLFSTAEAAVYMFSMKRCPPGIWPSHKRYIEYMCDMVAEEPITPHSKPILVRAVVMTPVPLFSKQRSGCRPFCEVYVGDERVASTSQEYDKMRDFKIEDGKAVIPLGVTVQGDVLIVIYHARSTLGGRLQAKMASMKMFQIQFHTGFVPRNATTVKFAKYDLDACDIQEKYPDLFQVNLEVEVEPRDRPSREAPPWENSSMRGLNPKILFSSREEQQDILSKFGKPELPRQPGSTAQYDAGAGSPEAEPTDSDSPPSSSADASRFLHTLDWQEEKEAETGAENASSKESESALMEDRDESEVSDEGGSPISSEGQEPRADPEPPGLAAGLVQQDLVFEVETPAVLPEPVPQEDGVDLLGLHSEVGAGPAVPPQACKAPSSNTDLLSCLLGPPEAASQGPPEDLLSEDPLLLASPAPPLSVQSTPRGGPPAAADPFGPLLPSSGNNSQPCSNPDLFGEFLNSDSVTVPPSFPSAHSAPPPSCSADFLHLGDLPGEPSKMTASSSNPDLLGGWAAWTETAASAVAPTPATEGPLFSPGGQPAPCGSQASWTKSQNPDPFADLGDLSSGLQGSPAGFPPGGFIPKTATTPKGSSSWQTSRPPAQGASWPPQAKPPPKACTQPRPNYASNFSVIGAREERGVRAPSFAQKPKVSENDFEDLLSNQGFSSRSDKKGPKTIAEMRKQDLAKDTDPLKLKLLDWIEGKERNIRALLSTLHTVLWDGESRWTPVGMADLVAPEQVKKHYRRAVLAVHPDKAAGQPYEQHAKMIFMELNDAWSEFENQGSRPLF

Experiment [3] concerns the target T3, Ras-related protein Rab-27A (Homo sapiens, UniProt P51159).
T3 sequence (P51159 whole entry): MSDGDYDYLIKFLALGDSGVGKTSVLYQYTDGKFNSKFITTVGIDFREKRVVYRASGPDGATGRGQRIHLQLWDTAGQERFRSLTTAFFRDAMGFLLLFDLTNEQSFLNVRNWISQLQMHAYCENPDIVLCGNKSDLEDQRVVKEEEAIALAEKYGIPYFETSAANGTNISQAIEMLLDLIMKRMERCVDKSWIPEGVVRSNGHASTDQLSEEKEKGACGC

Experiment [4] concerns the target T4, Serine/threonine-protein kinase TAO1 (Homo sapiens, UniProt Q7L7X3).
T4 sequence (Q7L7X3 whole entry): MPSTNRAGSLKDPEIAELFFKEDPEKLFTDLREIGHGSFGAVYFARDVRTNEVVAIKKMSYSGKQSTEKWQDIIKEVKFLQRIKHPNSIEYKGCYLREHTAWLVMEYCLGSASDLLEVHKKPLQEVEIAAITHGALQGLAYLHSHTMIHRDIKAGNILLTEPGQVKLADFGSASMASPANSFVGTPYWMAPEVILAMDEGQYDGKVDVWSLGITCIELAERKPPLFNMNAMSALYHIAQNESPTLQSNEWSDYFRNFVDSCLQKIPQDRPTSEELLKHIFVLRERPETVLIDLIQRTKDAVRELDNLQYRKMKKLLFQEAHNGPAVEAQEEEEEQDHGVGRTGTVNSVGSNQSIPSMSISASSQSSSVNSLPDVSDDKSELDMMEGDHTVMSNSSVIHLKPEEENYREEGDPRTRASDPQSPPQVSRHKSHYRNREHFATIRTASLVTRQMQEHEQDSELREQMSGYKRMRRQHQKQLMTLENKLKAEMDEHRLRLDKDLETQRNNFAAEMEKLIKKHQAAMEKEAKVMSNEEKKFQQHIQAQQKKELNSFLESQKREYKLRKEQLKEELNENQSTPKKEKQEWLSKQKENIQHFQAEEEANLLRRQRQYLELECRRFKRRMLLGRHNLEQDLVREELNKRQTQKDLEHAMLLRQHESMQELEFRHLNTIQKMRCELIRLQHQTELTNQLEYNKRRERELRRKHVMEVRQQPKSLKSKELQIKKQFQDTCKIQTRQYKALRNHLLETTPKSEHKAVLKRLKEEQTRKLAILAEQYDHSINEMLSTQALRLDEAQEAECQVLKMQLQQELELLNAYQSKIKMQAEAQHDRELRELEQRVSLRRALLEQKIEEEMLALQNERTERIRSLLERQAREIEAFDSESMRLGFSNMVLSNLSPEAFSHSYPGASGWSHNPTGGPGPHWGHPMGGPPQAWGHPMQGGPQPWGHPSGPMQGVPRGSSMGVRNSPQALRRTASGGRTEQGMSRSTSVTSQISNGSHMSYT

The structures appear in SMILES notation. Calls of active or inactive are those of the source. Rule as the data show it, for most assays here: actives have a measured Kd and inactives only a lower limit.
Also: in the data inactive means no Kd found up to 30 µM.

In the case of `C#Cc1cccc(Nc2ncnc3cc4c(cc23)OCCOCCOCCO4)c1` [ICOTINIB], the Kd – broadly, the equilibrium constant for the complex coming apart – was > 30 µM (inactive) in experiment [1], 0.725 µM (active) in experiment [2], > 30 µM (inactive) in experiment [3] and > 30 µM (inactive) in experiment [4].
Turning to `COc1cc(F)c(F)c(Nc2ccc(I)cc2F)c1NS(=O)(=O)C1(C[C@H](O)CO)CC1` [REFAMETINIB], the Kd in experiment [1], in experiment [2], in experiment [3] and in experiment [4] was > 30 µM (inactive) in each case.
On to `CCOc1ccn(-c2ccc(F)cc2)c(=O)c1C(=O)Nc1ccc(Oc2ccnc(N)c2Cl)c(F)c1` [BMS-777607], for which the Kd in experiment [1], in experiment [2], in experiment [3] and in experiment [4] was > 30 µM (inactive) throughout.
Take `O[C@H]1CC[C@H](Nc2ncc3nc(Nc4c(F)cc(F)cc4F)n([C@H]4CCOC4)c3n2)CC1` [TANZISERTIB]: the Kd in experiment [1] was > 30 µM (inactive); in experiment [2] it was 0.156 µM (active); in experiment [3], > 30 µM (inactive); in experiment [4] it was > 30 µM (inactive).
Take `FC(F)(F)c1ccc(CNc2ccc(Cc3c[nH]c4ncc(Cl)cc34)cn2)cn1` [PEXIDARTINIB]: the Kd in experiment [1], in experiment [2], in experiment [3] and in experiment [4] was > 30 µM (inactive) throughout.
For the molecule `CNC(=O)c1cc(COc2nnc(Nc3ccc(Cl)cc3)c3ccoc23)ccn1` [TELATINIB], the Kd in experiment [1], in experiment [2], in experiment [3] and in experiment [4] was > 30 µM (inactive) each time.
Turning to `COc1cc2ncnc3c2cc1OCCCCCN(C)Cc1ccc(Br)cc1N3` [JNJ-26483327], the Kd in experiment [1] was > 30 µM (inactive); in experiment [2] it was 0.12 µM (active); in experiment [3] it was > 30 µM (inactive); in experiment [4], > 30 µM (inactive).
In the case of `CNC(=O)c1cccc(-c2ccc3c(N4CCOC[C@@H]4C)nc(N4CCOC[C@@H]4C)nc3n2)c1` [VISTUSERTIB], the Kd in experiment [1], in experiment [2], in experiment [3] and in experiment [4] was > 30 µM (inactive) in each case.
Turning to `CC1(COc2ccc3c(c2)ncn3-c2ccc3cccc(N4CCC(N)CC4)c3n2)COC1` [CRENOLANIB], the Kd is > 30 µM (inactive) in experiment [1], 2.41 µM (active) in experiment [2], > 30 µM (inactive) in experiment [3] and 1.24 µM in experiment [4].
`NC(=O)c1ccc(N(C(N)=O)c2c(F)cccc2F)nc1-c1ccc(F)cc1F` [VX-702]: the Kd in experiment [1], in experiment [2], in experiment [3] and in experiment [4] was > 30 µM (inactive) throughout.
Consider `Cc1cc(-c2cc(OC(=O)c3ccccc3)ccc2Cl)cc2nnc(Nc3ccc(OCCN4CCCC4)cc3)nc12` [TG100-801], for which the Kd is > 30 µM (inactive) in experiment [1], 0.824 µM (active) in experiment [2], > 30 µM (inactive) in experiment [3] and > 30 µM (inactive) in experiment [4].
On to `O=C(Nc1ccc(OC(F)(F)F)cc1)c1sccc1NCc1ccnc2ccccc12` [OSI-930], for which the Kd in experiment [1], in experiment [2], in experiment [3] and in experiment [4] was > 30 µM (inactive) each time.
Regarding `COc1ccc(-c2ccc3ncc4c(c3c2)n(-c2ccc(N3CCNCC3)c(C(F)(F)F)c2)c(=O)n4C)cn1` [BGT-226 FREE BASE], the Kd in experiment [1], in experiment [2], in experiment [3] and in experiment [4] was > 30 µM (inactive) in each case.
Take `CNC(=O)c1ccc(Nc2ncc(C(F)(F)F)c(NCc3nccnc3N(C)S(C)(=O)=O)n2)cc1` [DEFACTINIB]: the Kd was > 30 µM (inactive) in experiment [1], > 30 µM (inactive) in experiment [2], > 30 µM (inactive) in experiment [3] and 3.23 µM (active) in experiment [4].
As for `N#CCNC(=O)c1ccc(-c2ccnc(Nc3ccc(N4CCOCC4)cc3)n2)cc1` [MOMELOTINIB], the Kd is > 30 µM (inactive) in experiment [1], 0.822 µM (active) in experiment [2], > 30 µM (inactive) in experiment [3] and > 30 µM (inactive) in experiment [4].
For `c1cc(OCCN2CCCCC2)cc(-c2n[nH]c3ccc(-c4nc[nH]n4)cc23)c1` [CC-401], the Kd in experiment [1] was > 30 µM (inactive); in experiment [2], 1.46 µM (active); in experiment [3], > 30 µM (inactive); in experiment [4] it was > 30 µM (inactive).
As to `O=S(=O)(c1cccc2c(O)nccc12)N1CCCNCC1` [HYDROXYFASUDIL], the Kd in experiment [1], in experiment [2], in experiment [3] and in experiment [4] was > 30 µM (inactive) each time.
Regarding `O=c1[nH]c([C@@H]2CCCN2)nc2c1oc1ccc(Cl)cc12`, the Kd in experiment [1], in experiment [2], in experiment [3] and in experiment [4] was > 30 µM (inactive) in each case.
Regarding `COc1cccc(Nc2ncnn3ccc(CN4CC[C@@H](N)[C@H](O)C4)c23)c1` [BMS-690514], the Kd in experiment [1] is > 30 µM (inactive); in experiment [2], 0.0003 µM (active); in experiment [3] it was > 30 µM (inactive); in experiment [4], > 30 µM (inactive).
As for `S=C(NCc1ccc2c(c1)OCO2)N1CCN(c2ncnc3c2oc2ccccc23)CC1` [AMUVATINIB], the Kd in experiment [1], in experiment [2], in experiment [3] and in experiment [4] was > 30 µM (inactive) each time.
